Among the test systems are A549; COLO 205; DU-145; Hs-578T; LOX IMVI; MCF7; MDA-MB-231; MOLT-4; Malme-3M; NCI-H522; OVCAR-4; PC-3; RPMI-8226; RXF 393; SF-539; SK-MEL-5; SN12C; TK-10; UACC-62.
Common to all, as to test: inhibition of tumour cell growth, NCI panel, 48 h

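The compound was tested at five concentrations on cells cultured in 96-well plates, with a 48-hour exposure period. GI50 marks 50% less growth.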 The source made the active and inactive calls. Cut-off read from the data, not from the text of the source: active = GI50 up to about 1.1 µM and inactive = higher. Square brackets hold non-standard residues; d marks the D form. Peptide text beside a SMILES is read from it. * marks the point of attachment. ξ: configuration not given here. ξD = NC(CC(=O)O)C(=O)O; Ac3c = NC1(C(=O)O)CC1; Boc = CC(C)(C)OC(=O)*; OtBu = CC(C)(C)O*

With `O=c1[nH]c(=O)n(C/C=C/CBr)nc1Br`, the GI50 in the assay on A549 is 15.8 µM (inactive); in the assay on COLO 205 it was 14.2 µM (inactive); in the assay with DU-145, > 100 µM (inactive); in the assay on Hs-578T, 19 µM (inactive); in the assay with LOX IMVI, 1.81 µM (inactive); in the assay on MCF7, 10.1 µM (inactive). Moreover, the GI50 in the assay with MDA-MB-231 is 3.49 µM (inactive); with MOLT-4, 16 µM (inactive); in the assay with Malme-3M it was 14.2 µM (inactive); in the assay with NCI-H522, 4.33 µM (inactive); in the assay with OVCAR-4, 10.4 µM (inactive); with PC-3 it was 12.2 µM (inactive). Moreover, the GI50 was 4.08 µM (inactive) in the assay on RPMI-8226; 12 µM (inactive) in the assay on RXF 393; 14 µM (inactive) with SF-539; 13.2 µM (inactive) in the assay with SK-MEL-5; 14.8 µM (inactive) in the assay on SN12C; 17.7 µM (inactive) in the assay with TK-10. For the same compound, the GI50 in the assay with UACC-62 was 13.8 µM (inactive).
For `CCCCCCCCCCCCCCCCCCNc1ccn(C2OC(COP(=O)(O)OCC3OC(n4cc(F)c(=O)[nH]c4=O)CC3O)C(O)C2O)c(=O)n1` (stereo not drawn), the GI50 is 0.251 µM (active) with A549; 16.1 µM (inactive) with COLO 205; 2.43 µM (inactive) in the assay with DU-145; 17.8 µM (inactive) with Hs-578T; 1.36 µM (inactive) in the assay with LOX IMVI; 0.274 µM (active) in the assay on MCF7. In addition, the GI50 in the assay on MDA-MB-231 was > 100 µM (inactive); in the assay on MOLT-4, 1.63 µM (inactive); in the assay on Malme-3M, 0.634 µM (active); with NCI-H522 it was 4.83 µM (inactive); in the assay with OVCAR-4, 60 µM (inactive); with PC-3 it was 1.53 µM (inactive). The GI50 is 1.44 µM (inactive) with RPMI-8226; 12.6 µM (inactive) in the assay on RXF 393; 0.207 µM (active) with SF-539; 23.1 µM (inactive) in the assay on SK-MEL-5; 3.29 µM (inactive) in the assay with SN12C; 14.7 µM (inactive) in the assay on TK-10. Besides, the GI50 in the assay on UACC-62 is 1.19 µM (inactive).
For `CCC(C)C1NC(=O)C(NC(=O)C(CC(C)C)N(C)C(=O)[C@@H]2C=CCN2C(=O)[C@H](C)O)C(C)OC(=O)[C@H](Cc2ccc(OC)cc2)N(C)C(=O)[C@@H]2CCCN2C(=O)[C@H](CC(C)C)NC(=O)C(C)C(=O)[C@H](C(C)C)OC(=O)CC1O` (stereo partly drawn), the GI50 in the assay with A549 is 0.004 µM (active); in the assay with COLO 205 it was 0.00143 µM (active); in the assay with DU-145 it was 0.00501 µM (active); in the assay with Hs-578T it was < 0.01 µM (active); with LOX IMVI it was 0.00242 µM (active); in the assay on MCF7 it was 0.00164 µM (active). In addition, the GI50 is 0.00608 µM (active) with MDA-MB-231; 0.00147 µM (active) in the assay with MOLT-4; 0.00219 µM (active) with Malme-3M; 0.00111 µM (active) in the assay on NCI-H522; 0.00234 µM (active) in the assay with OVCAR-4; 0.00291 µM (active) in the assay with PC-3. For the same compound, the GI50 in the assay with RPMI-8226 is 0.00267 µM (active); in the assay on RXF 393, < 0.01 µM (active); in the assay on SF-539 it was 0.00139 µM (active); with SK-MEL-5, 0.000914 µM (active); in the assay on SN12C, 0.00279 µM (active); in the assay on TK-10, 0.0175 µM (active). Also, the GI50 in the assay with UACC-62 was 0.00119 µM (active).
In the case of `COC(=O)Nc1nc2cc(NS(=O)(=O)c3ccc(Cl)cc3)ccc2[nH]1`, the GI50 was 15.9 µM (inactive) in the assay with A549; 9.1 µM (inactive) in the assay with COLO 205; 20.4 µM (inactive) in the assay on DU-145; 1.99 µM (inactive) with Hs-578T; 4.44 µM (inactive) in the assay with LOX IMVI; 4.08 µM (inactive) in the assay with MCF7. Further, the GI50 with MDA-MB-231 was 8.34 µM (inactive); in the assay on MOLT-4, 4.53 µM (inactive); in the assay with Malme-3M, 13.1 µM (inactive); in the assay on NCI-H522, 3.4 µM (inactive); in the assay with OVCAR-4 it was 13 µM (inactive); in the assay with PC-3, 8.55 µM (inactive). In addition, the GI50 is 6.75 µM (inactive) with RPMI-8226; 7.23 µM (inactive) in the assay on RXF 393; 7.21 µM (inactive) in the assay with SF-539; 3.99 µM (inactive) in the assay with SK-MEL-5; 16.3 µM (inactive) in the assay on SN12C; 2.7 µM (inactive) in the assay with TK-10. In addition, the GI50 with UACC-62 was 6.71 µM (inactive).
For the compound `CC(C#N)N(CCc1ccccc1)C(=O)c1ccccc1` (stereo not drawn), the GI50 in the assay on A549, with COLO 205, with DU-145, in the assay with Hs-578T, in the assay with LOX IMVI and in the assay with MCF7 was > 100 µM (inactive) throughout. In addition, the GI50 in the assay with MDA-MB-231 was > 100 µM (inactive); in the assay on MOLT-4 it was 47.6 µM (inactive); in the assay with Malme-3M, > 100 µM (inactive); with NCI-H522, > 100 µM (inactive); in the assay on OVCAR-4 it was > 100 µM (inactive); in the assay on PC-3, > 100 µM (inactive). The GI50 with RPMI-8226, with RXF 393, in the assay on SF-539, in the assay on SK-MEL-5, in the assay with SN12C and with TK-10 was > 100 µM (inactive) in each case. The GI50 in the assay with UACC-62 is > 100 µM (inactive).
`COC1(C)CP(=O)(OC(C)C)CC(C)=C1Cl` (stereo not drawn): the GI50 was 17.1 µM (inactive) in the assay with A549; 14.5 µM (inactive) in the assay with COLO 205; 19.3 µM (inactive) in the assay on DU-145; 9.84 µM (inactive) in the assay with Hs-578T; 11.7 µM (inactive) with LOX IMVI; 4.67 µM (inactive) in the assay on MCF7. In addition, the GI50 with MDA-MB-231 was 15.9 µM (inactive); in the assay with MOLT-4, 22.2 µM (inactive); in the assay on Malme-3M, 17.3 µM (inactive); with NCI-H522, 9.62 µM (inactive); in the assay with OVCAR-4, 15 µM (inactive); with PC-3, 25.5 µM (inactive). The GI50 in the assay on RPMI-8226 was 3.78 µM (inactive); with RXF 393, 21.4 µM (inactive); in the assay on SF-539, 10.7 µM (inactive); with SK-MEL-5, 12.4 µM (inactive); with SN12C, 15.2 µM (inactive); with TK-10, 15.9 µM (inactive). Besides, the GI50 in the assay with UACC-62 was 10.2 µM (inactive).
In the case of `COC(=O)C1(NC(=O)C(CC(=O)OC(C)(C)C)NC(=O)OC(C)(C)C)CC1` (stereo not drawn) (Boc-[ξD](OtBu)-[Ac3c]-OMe), the GI50 in the assay with A549, in the assay with COLO 205, with DU-145, with Hs-578T, in the assay with LOX IMVI and in the assay on MCF7 was > 100 µM (inactive) throughout. Further, the GI50 in the assay on MDA-MB-231, in the assay with MOLT-4, in the assay with Malme-3M, with NCI-H522, in the assay on OVCAR-4 and in the assay on PC-3 was > 100 µM (inactive) each time. Moreover, the GI50 in the assay on RPMI-8226, in the assay on RXF 393, in the assay on SF-539, with SK-MEL-5, with SN12C and in the assay on TK-10 was > 100 µM (inactive) throughout. The GI50 in the assay on UACC-62 is 1.19 µM (inactive).
`Nc1nc(Cl)c(/N=N/c2ccc(Cl)cc2)c(NCC2(CO)CCC(CCc3ccccc3)C2)n1` (stereo not drawn): the GI50 in the assay with A549 was 14.1 µM (inactive); in the assay on COLO 205 it was 4.86 µM (inactive); in the assay with DU-145, 13.2 µM (inactive); in the assay on Hs-578T, 8.51 µM (inactive); with LOX IMVI it was 1.79 µM (inactive); with MCF7, 5.62 µM (inactive). Moreover, the GI50 with MDA-MB-231 is 12.2 µM (inactive); in the assay on MOLT-4, 1.29 µM (inactive); in the assay on Malme-3M, 14.8 µM (inactive); with NCI-H522, 1.31 µM (inactive); in the assay with OVCAR-4 it was 1.5 µM (inactive); in the assay with PC-3, 12.2 µM (inactive). Moreover, the GI50 is 12.1 µM (inactive) with RPMI-8226; 7.8 µM (inactive) in the assay with RXF 393; 14.2 µM (inactive) with SF-539; 1.37 µM (inactive) with SK-MEL-5; 9.46 µM (inactive) in the assay on SN12C; 13.8 µM (inactive) in the assay with TK-10. In addition, the GI50 in the assay with UACC-62 is 10.4 µM (inactive).
In the case of `NC(=S)N/N=C1/CCCC2CCCC[C@@H]12` (stereo partly drawn), the GI50 in the assay with A549 is > 100 µM (inactive); in the assay on COLO 205, > 100 µM (inactive); with DU-145, > 100 µM (inactive); with Hs-578T, 76.4 µM (inactive); in the assay with LOX IMVI it was > 100 µM (inactive); in the assay with MCF7, > 100 µM (inactive). The GI50 with MDA-MB-231 was > 100 µM (inactive); in the assay with MOLT-4 it was > 100 µM (inactive); with Malme-3M, > 100 µM (inactive); in the assay with NCI-H522, 80.4 µM (inactive); with OVCAR-4, > 100 µM (inactive); with PC-3, > 100 µM (inactive). Further, the GI50 with RPMI-8226 was > 100 µM (inactive); with RXF 393 it was > 100 µM (inactive); in the assay on SF-539, > 100 µM (inactive); with SK-MEL-5, 97.3 µM (inactive); in the assay on TK-10 it was > 100 µM (inactive); with UACC-62, > 100 µM (inactive).
Regarding `CC(=O)N1N=C(c2ccc3ccccc3c2O)CC1c1ccc(Cl)cc1Cl` (stereo not drawn), the GI50 with A549 was 25.1 µM (inactive); with COLO 205 it was 28.3 µM (inactive); in the assay on DU-145, > 100 µM (inactive); with Hs-578T, 39.1 µM (inactive); with MCF7, 13.2 µM (inactive); in the assay with MDA-MB-231 it was 26.7 µM (inactive). For the same compound, the GI50 was 7.67 µM (inactive) in the assay on MOLT-4; > 100 µM (inactive) in the assay with Malme-3M; 25.7 µM (inactive) in the assay on NCI-H522; 33.1 µM (inactive) in the assay on OVCAR-4; 17.1 µM (inactive) with PC-3; 17.3 µM (inactive) with RPMI-8226. Moreover, the GI50 in the assay with RXF 393 was 30.3 µM (inactive); with SF-539, 18.1 µM (inactive); with SK-MEL-5 it was 33.7 µM (inactive); with SN12C, 19.6 µM (inactive); in the assay on TK-10 it was 52.7 µM (inactive); with UACC-62 it was > 100 µM (inactive).

These data come from ChEMBL document CHEMBL1201862, “PubChem BioAssay data set” (2004).
